Data from paper PMC7534351, “Imidazothiazole-based potent inhibitors of V600E-B-RAF kinase with promising anti-melanoma activity: biological and computational studies” (Journal of Enzyme Inhibition and Medicinal Chemistry, 2020).
Like-named read-outs stand apart in the source and are kept apart here. Each block holds one compound with its values, some of them ahead of it.

Legend:
[1] = biological target: PDGFRβ (Homo sapiens, UniProt P09619); assay: Kinase panel, PDGFRβ; format: biochemical; conditions: mean ± SEM
Protocol: (§1) In a final volume of 25 µL, the tested kinase (5–10 mU) was incubated with 25 mM Tris pH 7.5, 0.02 mM EDTA, 0.66 mg/mL myelin basic protein, 10 mM magnesium acetate and [γ^33P-ATP] (specific activity approx. 500 cpm/pmol, concentration as required). The reaction was initiated by the addition of the Mg-ATP mix. After incubation for 40 min at room temperature, the reaction was stopped by the addition of 5 µL of a 3% phosphoric acid solution. 10 µL of the reaction was then spotted onto a P30 filtermat and washed three times for 5 min in 75 mM phosphoric acid and once in methanol before drying and scintillation counting.

[2] = biological target: ErbB2 (Homo sapiens, UniProt P04626); assay: Kinase panel, ErbB2; format: biochemical; conditions: mean ± SEM
Protocol: as §1

[3] = biological target: RAF1 (Homo sapiens, UniProt P04049); assay: Cell-free kinase profiling, RAF1; format: biochemical; conditions: for inhibition at 1 µM / One-dose (1 µM) results against RAF1 (% inhibition): mean of duplicate assays ± SEM; for inhibition at 1 µM: read-out: One-dose (1 µM) results against RAF1 (% inhibition)
Chain of RAF1 (P04049 whole entry): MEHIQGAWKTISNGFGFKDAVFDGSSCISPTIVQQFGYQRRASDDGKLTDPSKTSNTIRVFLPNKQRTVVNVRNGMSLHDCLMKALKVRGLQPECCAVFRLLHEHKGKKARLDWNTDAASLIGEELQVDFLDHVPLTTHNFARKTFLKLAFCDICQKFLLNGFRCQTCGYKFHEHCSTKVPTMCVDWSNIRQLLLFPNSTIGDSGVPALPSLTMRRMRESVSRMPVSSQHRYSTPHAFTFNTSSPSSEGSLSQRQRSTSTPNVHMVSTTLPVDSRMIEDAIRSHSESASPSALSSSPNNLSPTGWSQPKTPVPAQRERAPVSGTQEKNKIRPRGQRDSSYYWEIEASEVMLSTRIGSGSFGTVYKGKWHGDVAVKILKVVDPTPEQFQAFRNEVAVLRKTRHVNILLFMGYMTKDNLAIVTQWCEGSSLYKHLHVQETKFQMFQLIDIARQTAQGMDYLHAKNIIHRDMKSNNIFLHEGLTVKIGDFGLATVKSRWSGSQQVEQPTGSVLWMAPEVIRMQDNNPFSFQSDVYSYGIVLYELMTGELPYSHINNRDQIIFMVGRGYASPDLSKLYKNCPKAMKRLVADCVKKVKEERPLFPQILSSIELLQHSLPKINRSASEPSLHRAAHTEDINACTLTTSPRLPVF
Protocol: as §1

[4] = biological target: JNK1(α1) (Homo sapiens, UniProt P45983); assay: Kinase panel, JNK1(α1); format: biochemical; conditions: mean ± SEM
Protocol: as §1

[5] = biological target: ErbB4 (Homo sapiens, UniProt Q15303); assay: Kinase panel, ErbB4; format: biochemical; conditions: mean ± SEM
Protocol: as §1

[6] = biological target: ALK (Homo sapiens, UniProt Q9UM73); assay: Kinase panel, ALK; format: biochemical; conditions: mean ± SEM
Protocol: as §1

[7] = biological target: ABL (Homo sapiens, UniProt P00519); assay: Kinase panel, ABL; format: biochemical; conditions: mean ± SEM
Protocol: as §1

[8] = biological target: cKIT (Homo sapiens, UniProt P10721); assay: Kinase panel, cKIT; format: biochemical; conditions: mean ± SEM
Protocol: as §1

[9] = biological target: JAK1 (Homo sapiens, UniProt P23458); assay: Kinase panel, JAK1; format: biochemical; conditions: mean ± SEM
Protocol: as §1

[10] = biological target: DMPK (Homo sapiens, UniProt Q09013); assay: Kinase panel, DMPK; format: biochemical; conditions: mean ± SEM
Protocol: as §1

[11] = biological target: T1, V600E-B-RAF (Homo sapiens, UniProt P15056, V600E); assay: Cell-free kinase profiling, V600E-B-RAF; format: biochemical; conditions: for inhibition at 1 µM / One-dose (1 µM) results against V600E-B-RAF (% inhibition): mean of duplicate assays ± SEM; for inhibition at 1 µM: read-out: One-dose (1 µM) results against V600E-B-RAF (% inhibition)
Protocol: The reaction was initiated by the addition of the Mg-ATP mix. After incubation for 40 min at room temperature, the reaction was stopped by the addition of 5 µL of a 3% phosphoric acid solution. 10 µL of the reaction was then spotted onto a P30 filtermat and washed three times for 5 min in 75 mM phosphoric acid and once in methanol before drying and scintillation counting.
Target sequence in this assay (P15056 whole entry V600E): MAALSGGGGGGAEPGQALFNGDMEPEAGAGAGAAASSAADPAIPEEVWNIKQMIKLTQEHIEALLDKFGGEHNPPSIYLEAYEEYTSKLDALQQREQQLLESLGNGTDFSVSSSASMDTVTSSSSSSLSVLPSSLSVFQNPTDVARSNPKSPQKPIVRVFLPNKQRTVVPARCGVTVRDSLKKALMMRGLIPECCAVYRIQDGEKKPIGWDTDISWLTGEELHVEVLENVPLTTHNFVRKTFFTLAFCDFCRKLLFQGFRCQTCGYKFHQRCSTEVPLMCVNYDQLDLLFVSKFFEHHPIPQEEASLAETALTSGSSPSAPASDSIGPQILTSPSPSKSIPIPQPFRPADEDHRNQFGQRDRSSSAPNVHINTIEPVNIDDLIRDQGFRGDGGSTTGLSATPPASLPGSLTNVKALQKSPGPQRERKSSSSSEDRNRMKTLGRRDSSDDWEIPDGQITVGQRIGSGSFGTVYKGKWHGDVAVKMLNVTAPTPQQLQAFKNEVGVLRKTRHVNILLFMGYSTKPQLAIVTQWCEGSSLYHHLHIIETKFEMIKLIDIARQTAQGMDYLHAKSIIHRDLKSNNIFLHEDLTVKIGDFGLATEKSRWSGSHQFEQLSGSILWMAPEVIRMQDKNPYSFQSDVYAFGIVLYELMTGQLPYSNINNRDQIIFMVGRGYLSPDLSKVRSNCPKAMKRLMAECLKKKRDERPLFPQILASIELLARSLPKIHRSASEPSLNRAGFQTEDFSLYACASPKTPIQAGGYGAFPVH

[12] = biological target: PI3Kα (Homo sapiens, UniProt P42336); assay: Kinase panel, PI3Kα; format: biochemical; conditions: mean ± SEM
Protocol: as §1

[13] = biological target: ROS (Homo sapiens, UniProt P08922); assay: Kinase panel, ROS; format: biochemical; conditions: mean ± SEM
Protocol: as §1

[14] = biological target: MEK2 (Homo sapiens, UniProt P36507); assay: Kinase panel, MEK2; format: biochemical; conditions: mean ± SEM
Chain of MEK2 (P36507 whole entry): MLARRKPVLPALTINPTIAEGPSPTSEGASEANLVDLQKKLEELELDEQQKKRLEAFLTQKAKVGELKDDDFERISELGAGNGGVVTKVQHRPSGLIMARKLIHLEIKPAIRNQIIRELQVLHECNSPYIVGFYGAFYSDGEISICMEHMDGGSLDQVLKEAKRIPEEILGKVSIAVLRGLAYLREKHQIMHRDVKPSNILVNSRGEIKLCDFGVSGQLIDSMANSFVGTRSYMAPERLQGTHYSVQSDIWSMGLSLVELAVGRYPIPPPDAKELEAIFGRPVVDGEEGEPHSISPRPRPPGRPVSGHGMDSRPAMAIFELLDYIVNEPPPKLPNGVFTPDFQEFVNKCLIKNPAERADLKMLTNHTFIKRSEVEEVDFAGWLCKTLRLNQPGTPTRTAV
Protocol: as §1

[15] = biological target: T1, V600E-B-RAF; assay: In-cell kinase assay (MEK1 phosphorylation ELISA in MEF-V600E-B-RAF:ER cells); format: cell-based; conditions: MEF cell line, phospho-MEK1 readout, 90 min compound incubation; read-out: in-cell V600E-B-RAF kinase inhibition IC50
Protocol: MEF-V600E-B-RAF:ER cells were plated in Dulbecco’s modified eagle medium (DMEM) supplemented with 10% FCS in multiwell cell culture plates. Compound incubation (90 min at 37 °C) was done in serum-free medium. […] For stimulation, cells were treated with 1 µM hydroxytamoxifen for 1 h at room temperature. After cell lysis, quantification of MEK1 phosphorylation was assessed in 96-well plates via sandwich-ELISA using a MEK1 specific capture antibody and a phospho-MEK1-Ser218/222 specific detection antibody.

[16] = biological target: KDR (Homo sapiens, UniProt P35968); assay: Kinase panel, KDR; format: biochemical; conditions: mean ± SEM
Protocol: as §1

[17] = biological target: LCK (Homo sapiens, UniProt P06239); assay: Kinase panel, LCK; format: biochemical; conditions: mean ± SEM
Protocol: as §1

[18] = biological target: TRKA (Homo sapiens, UniProt P04629); assay: Kinase panel, TRKA; format: biochemical; conditions: mean ± SEM
Protocol: as §1

[19] = biological target: B-RAF^wt (Homo sapiens, UniProt P15056); assay: Kinase panel, B-RAF wt; format: biochemical; conditions: mean ± SEM
Chain of B-RAF^wt (P15056 whole entry): as the sequence (P15056 whole entry V600E) above, with E600V counted along it
Protocol: as §1

[20] = system: 30-kinase panel; assay: 30-kinase panel as a whole; format: biochemical; conditions: 1 µM; all panel kinases apart from V600E-B-RAF and FLT3
Protocol: as §1

[21] = system: SK-MEL-28 melanoma cell line; assay: MTT assay, SK-MEL-28; format: cell-based; conditions: Homo sapiens, 48 h, mean of triplicate assays ± SEM, read-out: Antiproliferative activity (IC50 value, µM) SK-MEL-28
Protocol: (§2) The melanoma and normal skin cell lines were maintained in DMEM including 10% foetal bovine serum (FBS) and 1% penicillin/streptomycin in a humid atmosphere containing 5% carbon dioxide at 37 °C. […] The cells were incubated for 48 h following treatment with the test compounds. The cellular viability was assessed by the conventional 3–(4,5-dimethylthiazol-2-yl)-2,5-diphenyltetrazolium bromide (MTT) reduction assay. MTT assays were carried out with CellTiter 96® (Promega) according to the manufacturer’s instructions. The absorbance at 590 nm was recorded using EnVision 2103 (Perkin Elmer; Boston, MA, USA). The IC50 values were calculated using GraphPad Prism 4.0 software. Triplicate testing was performed.

[22] = biological target: PI3K-C2α (Homo sapiens, UniProt O00443); assay: Kinase panel, PI3K-C2α; format: biochemical; conditions: mean ± SEM
Protocol: as §1

[23] = biological target: mTOR (Homo sapiens, UniProt P42345); assay: Kinase panel, mTOR; format: biochemical; conditions: mean ± SEM
Protocol: as §1

[24] = biological target: Aurora-A (Homo sapiens, UniProt O14965); assay: Kinase panel, Aurora-A; format: biochemical; conditions: mean ± SEM
Chain of Aurora-A (O14965 whole entry): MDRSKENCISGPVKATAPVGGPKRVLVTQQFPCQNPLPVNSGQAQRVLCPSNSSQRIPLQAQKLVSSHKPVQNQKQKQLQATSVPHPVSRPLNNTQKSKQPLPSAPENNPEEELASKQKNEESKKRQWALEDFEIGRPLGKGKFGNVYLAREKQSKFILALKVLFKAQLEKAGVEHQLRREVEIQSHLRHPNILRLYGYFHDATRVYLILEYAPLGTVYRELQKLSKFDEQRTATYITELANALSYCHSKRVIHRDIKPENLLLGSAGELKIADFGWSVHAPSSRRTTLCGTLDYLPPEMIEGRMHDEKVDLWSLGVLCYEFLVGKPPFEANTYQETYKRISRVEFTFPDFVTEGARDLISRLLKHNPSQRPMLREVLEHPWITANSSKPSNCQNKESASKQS
Protocol: as §1

[25] = biological target: FMS (Homo sapiens, UniProt P07333); assay: Kinase panel, FMS; format: biochemical; conditions: mean ± SEM
Protocol: as §1

[26] = system: A375 melanoma cell line; assay: MTT assay, A375; format: cell-based; conditions: Homo sapiens, A-375, 48 h, mean of triplicate assays ± SEM, read-out: Antiproliferative activity (IC50 value, µM) A375
Protocol: as §2

[27] = biological target: A-RAF (Homo sapiens, UniProt P10398); assay: Kinase panel, A-RAF; format: biochemical; conditions: mean ± SEM
Protocol: as §1

[28] = system: four melanoma cell lines; assay: MTT assay, four melanoma cell lines (range); format: cell-based; conditions: range over A375, MDA-MB-435, SK-MEL-28, UACC-62; read-out: IC50 against four melanoma cell lines (range)
Protocol: as §2

[29] = biological target: VRK1 (Homo sapiens, UniProt Q99986); assay: Kinase panel, VRK1; format: biochemical; conditions: mean ± SEM
Protocol: as §1

[30] = biological target: MEK1 (Homo sapiens, UniProt Q02750); assay: Kinase panel, MEK1; format: biochemical; conditions: mean ± SEM
Protocol: as §1

[31] = biological target: EGFR (Homo sapiens, UniProt P00533); assay: Kinase panel, EGFR; format: biochemical; conditions: mean ± SEM
Chain of EGFR (P00533 25-1210): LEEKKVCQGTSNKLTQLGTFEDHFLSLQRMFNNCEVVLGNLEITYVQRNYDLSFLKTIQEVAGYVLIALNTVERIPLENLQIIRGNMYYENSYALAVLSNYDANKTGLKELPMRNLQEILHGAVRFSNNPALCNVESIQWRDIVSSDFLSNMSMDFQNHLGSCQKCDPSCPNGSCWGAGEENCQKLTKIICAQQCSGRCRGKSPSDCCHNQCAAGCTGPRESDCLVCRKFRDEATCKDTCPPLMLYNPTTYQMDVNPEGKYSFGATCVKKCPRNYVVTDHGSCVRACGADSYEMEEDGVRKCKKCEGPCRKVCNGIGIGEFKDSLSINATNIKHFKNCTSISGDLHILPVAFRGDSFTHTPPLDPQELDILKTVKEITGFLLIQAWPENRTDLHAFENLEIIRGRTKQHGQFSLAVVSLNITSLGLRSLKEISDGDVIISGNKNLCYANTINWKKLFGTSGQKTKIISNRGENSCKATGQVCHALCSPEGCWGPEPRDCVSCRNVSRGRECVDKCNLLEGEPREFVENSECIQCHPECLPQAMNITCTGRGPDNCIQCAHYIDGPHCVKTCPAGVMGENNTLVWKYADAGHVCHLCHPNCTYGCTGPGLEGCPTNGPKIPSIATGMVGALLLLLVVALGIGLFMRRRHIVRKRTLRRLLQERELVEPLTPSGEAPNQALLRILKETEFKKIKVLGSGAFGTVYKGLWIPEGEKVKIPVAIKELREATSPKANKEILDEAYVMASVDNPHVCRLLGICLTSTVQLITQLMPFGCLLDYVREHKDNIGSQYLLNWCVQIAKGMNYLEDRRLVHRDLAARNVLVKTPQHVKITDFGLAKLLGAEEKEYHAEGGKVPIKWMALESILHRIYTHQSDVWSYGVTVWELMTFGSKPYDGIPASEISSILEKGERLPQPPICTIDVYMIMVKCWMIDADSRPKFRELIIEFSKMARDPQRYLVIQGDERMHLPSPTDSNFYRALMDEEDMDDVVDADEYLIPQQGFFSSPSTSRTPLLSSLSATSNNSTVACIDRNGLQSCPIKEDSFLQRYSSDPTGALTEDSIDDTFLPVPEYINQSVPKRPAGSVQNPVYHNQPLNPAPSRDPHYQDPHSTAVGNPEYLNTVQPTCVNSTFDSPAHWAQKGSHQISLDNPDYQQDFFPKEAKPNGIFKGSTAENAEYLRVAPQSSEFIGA
Protocol: as §1

[32] = system: CCD1106K normal skin epithelial cell line; assay: MTT assay, CCD1106K normal skin cells; format: cell-based; conditions: 48 h, mean of triplicate assays ± SEM, read-out: Antiproliferative activity (IC50 value, µM) CCD1106K normal skin cells
Protocol: as §2

[33] = system: MDA-MB-435 melanoma cell line; assay: MTT assay, MDA-MB-435; format: cell-based; conditions: Homo sapiens, 48 h, mean of triplicate assays ± SEM, read-out: Antiproliferative activity (IC50 value, µM) MDA-MB-435
Protocol: as §2

[34] = biological target: JAK2 (Homo sapiens, UniProt O60674); assay: Kinase panel, JAK2; format: biochemical; conditions: mean ± SEM
Protocol: as §1

[35] = biological target: FLT3 (Homo sapiens, UniProt P36888); assay: Kinase panel, FLT3; format: biochemical
Chain of FLT3 (P36888 27-993, species assumed): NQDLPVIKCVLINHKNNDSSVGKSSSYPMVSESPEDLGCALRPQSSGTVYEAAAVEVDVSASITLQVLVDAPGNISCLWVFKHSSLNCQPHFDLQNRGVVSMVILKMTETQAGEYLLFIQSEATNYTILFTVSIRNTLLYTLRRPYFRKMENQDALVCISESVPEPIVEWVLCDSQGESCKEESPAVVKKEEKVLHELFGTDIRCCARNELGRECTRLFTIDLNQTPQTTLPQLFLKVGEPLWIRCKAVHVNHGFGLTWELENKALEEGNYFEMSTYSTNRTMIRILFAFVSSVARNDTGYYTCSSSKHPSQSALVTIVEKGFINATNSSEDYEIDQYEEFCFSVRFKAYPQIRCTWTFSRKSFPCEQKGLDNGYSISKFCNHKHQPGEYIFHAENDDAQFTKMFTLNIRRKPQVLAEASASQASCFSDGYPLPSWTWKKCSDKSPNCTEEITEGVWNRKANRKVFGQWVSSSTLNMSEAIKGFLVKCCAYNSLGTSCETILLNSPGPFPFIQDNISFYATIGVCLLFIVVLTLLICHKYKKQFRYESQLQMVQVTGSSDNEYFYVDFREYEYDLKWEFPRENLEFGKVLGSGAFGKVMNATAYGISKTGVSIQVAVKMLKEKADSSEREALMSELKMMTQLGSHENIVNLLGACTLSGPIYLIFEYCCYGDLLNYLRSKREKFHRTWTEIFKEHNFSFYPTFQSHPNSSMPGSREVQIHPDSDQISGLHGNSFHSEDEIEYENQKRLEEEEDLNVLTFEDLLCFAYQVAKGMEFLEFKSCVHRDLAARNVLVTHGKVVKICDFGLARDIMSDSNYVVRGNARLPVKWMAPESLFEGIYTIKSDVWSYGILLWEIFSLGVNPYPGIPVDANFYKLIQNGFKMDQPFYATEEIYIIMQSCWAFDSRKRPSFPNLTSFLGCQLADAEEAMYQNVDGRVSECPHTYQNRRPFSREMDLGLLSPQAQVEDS
Protocol: as §1

[36] = system: UACC-62 melanoma cell line; assay: MTT assay, UACC-62; format: cell-based; conditions: Homo sapiens, 48 h, mean of triplicate assays ± SEM, read-out: Antiproliferative activity (IC50 value, µM) UACC-62
Protocol: as §2

[37] = biological target: BTK (Homo sapiens, UniProt Q06187); assay: Kinase panel, BTK; format: biochemical; conditions: mean ± SEM
Chain of BTK (Q06187 whole entry): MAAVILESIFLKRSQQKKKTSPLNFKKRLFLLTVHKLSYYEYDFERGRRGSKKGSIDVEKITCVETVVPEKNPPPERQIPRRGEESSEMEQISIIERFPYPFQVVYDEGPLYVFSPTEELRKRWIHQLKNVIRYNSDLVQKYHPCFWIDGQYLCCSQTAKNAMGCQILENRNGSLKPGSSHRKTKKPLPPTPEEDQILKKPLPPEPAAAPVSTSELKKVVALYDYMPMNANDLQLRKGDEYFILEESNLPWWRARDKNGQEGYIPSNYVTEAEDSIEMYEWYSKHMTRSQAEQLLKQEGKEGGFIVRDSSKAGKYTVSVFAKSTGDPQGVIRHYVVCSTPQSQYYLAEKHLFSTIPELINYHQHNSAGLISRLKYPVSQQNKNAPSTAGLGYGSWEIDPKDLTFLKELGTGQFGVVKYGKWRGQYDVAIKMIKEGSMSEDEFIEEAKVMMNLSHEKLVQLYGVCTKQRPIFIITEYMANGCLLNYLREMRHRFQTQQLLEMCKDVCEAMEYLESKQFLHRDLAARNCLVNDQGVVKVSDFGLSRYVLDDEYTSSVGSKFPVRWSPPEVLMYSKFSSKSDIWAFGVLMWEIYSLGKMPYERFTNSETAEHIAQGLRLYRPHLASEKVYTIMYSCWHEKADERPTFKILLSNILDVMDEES
Protocol: as §1

[38] = 10-dose mode, read-out: IC50 value (nM) against V600E-B-RAF
[39] = from the IC50 values of Table 1, used for QSAR
[40] = 10-dose mode, read-out: IC50 value (nM) against RAF1

inhibition at 1 µM [1]: 12.5%
inhibition at 1 µM [2]: 2.17%
inhibition at 1 µM [3]: 99.4%
IC50 ([3]; from the IC50 values of Table 1, used for QSAR, read-out: pIC50 (RAF1) (converted)): 8.2 nM
inhibition at 1 µM [4]: 0.76%
inhibition at 1 µM [5]: 13.7%
inhibition at 1 µM [6]: 41.2%
inhibition at 1 µM [7]: 7.57%
inhibition at 1 µM [8]: 9.63%
inhibition at 1 µM [9]: -0.26%
inhibition at 1 µM [10]: 0.84%
inhibition at 1 µM [11]: 99.5%
IC50 [11, 38]: 0.978 nM
inhibition at 1 µM [12]: 5.85%
inhibition at 1 µM [13]: 2.02%
inhibition at 1 µM [14]: 26.6%
IC50 [15]: 190 nM
inhibition at 1 µM [16]: 18.8%
inhibition at 1 µM [17]: 12.4%
inhibition at 1 µM [18]: 46.7%
inhibition at 1 µM [19]: 23.4%
inhibitory effect against all the other kinases of the panel [20]: less than 50%
IC50 [21]: 0.38 ± 0.05 µM
inhibition at 1 µM [22]: 50%
inhibition at 1 µM [23]: 7.83%
inhibition at 1 µM [24]: 49.8%
inhibition at 1 µM [25]: 12.2%
IC50 [26]: 0.46 ± 0.03 µM
inhibition at 1 µM [27]: 9.14%
IC50 [28]: 180 to 590 nM
inhibition at 1 µM [29]: 3.93%
inhibition at 1 µM [30]: 1.5%
inhibition at 1 µM [31]: 19.9%
IC50 [33]: 0.59 ± 0.06 µM
inhibition at 1 µM [34]: 3.76%
inhibition at 1 µM ([35]; 1 µM, mean ± SEM): 73.1%
IC50 ([35]; read-out: IC50 (nM) against FLT3): 838 nM
IC50 [36]: 0.18 ± 0.02 µM
inhibition at 1 µM [37]: 17%
SMILES: O=C(NCCNc1nccc(-c2c(-c3cccc(O)c3)nc3sccn23)n1)c1ccccc1 [Compound 1zb]
IC50 [32]: 9.26 ± 0.38 µM

inhibition at 1 µM [3]: 90.8%
IC50 [3, 40]: 158 nM
inhibition at 1 µM [11]: 99%
IC50 ([11]; from the IC50 values of Table 1, used for QSAR, read-out: pIC50 (V600E- B-RAF) (converted)): 15.8 nM
SMILES: O=C(NCCNc1nccc(-c2c(-c3cccc(O)c3)nc3sccn23)n1)c1ccc(N2CCOCC2)c(C(F)(F)F)c1 [Compound 1zg]

One-dose (1 µM) results against RAF1 (% inhibition) [3]: 99.32% ± 0.23%
IC50 [3, 40]: 10.5 nM
pIC50 (RAF1) [3, 39]: 7.979
One-dose (1 µM) results against V600E-B-RAF (% inhibition) [11]: 101.07% ± 1.53%
IC50 [11, 38]: 1.9 nM
pIC50 (V600E- B-RAF) [11, 39]: 8.721
SMILES: O=C(NCCNc1nccc(-c2c(-c3cccc(O)c3)nc3sccn23)n1)c1ccccc1O [Compound 1zc]

Further lines, the compound ahead of its results:

SMILES: COc1cccc(-c2nc3sccn3c2-c2ccnc(NCCNC(=O)c3ccccc3)n2)c1 [Compound 1u]
One-dose (1 µM) results against RAF1 (% inhibition) [3]: 74.00% ± 0.64%
One-dose (1 µM) results against V600E-B-RAF (% inhibition) [11]: 95.03% ± 0.66%
IC50 [11, 38]: 45.1 nM
pIC50 (V600E- B-RAF) [11, 39]: 7.346

SMILES: COc1cccc(-c2nc3sccn3c2-c2ccnc(NCCNC(=O)c3ccccc3O)n2)c1 [Compound 1v]
One-dose (1 µM) results against RAF1 (% inhibition) [3]: 59.25% ± 2.53%
One-dose (1 µM) results against V600E-B-RAF (% inhibition) [11]: 90.82% ± 0.25%
IC50 [11, 38]: 100 nM
pIC50 (V600E- B-RAF) [11, 39]: 7.000

SMILES: CNC(=O)c1cc(Oc2ccc(NC(=O)Nc3ccc(Cl)c(C(F)(F)F)c3)cc2)ccn1 [Sorafenib, sorafenib, reference compound]
IC50 [26]: 5.45 ± 0.53 µM
IC50 [28]: 1950 to 5450 nM
IC50 [32]: 11.6 ± 0.46 µM
IC50 [33]: 3.16 ± 0.2 µM
IC50 [36]: 1.95 ± 0.08 µM
